Key:
[1] = molecular target: T1, MAGL (Mus musculus, UniProt O35678); assay: In vitro competitive activity-based protein profiling, mouse MAGL; format: biochemical; conditions: for inhibition at 1 µM: read-out: MAGL % inh. 1 μM (mouse)
T1 construct: mouse brain membrane fraction or cell lysates for mouse assays; from tissue
T1 sequence (O35678 1-303): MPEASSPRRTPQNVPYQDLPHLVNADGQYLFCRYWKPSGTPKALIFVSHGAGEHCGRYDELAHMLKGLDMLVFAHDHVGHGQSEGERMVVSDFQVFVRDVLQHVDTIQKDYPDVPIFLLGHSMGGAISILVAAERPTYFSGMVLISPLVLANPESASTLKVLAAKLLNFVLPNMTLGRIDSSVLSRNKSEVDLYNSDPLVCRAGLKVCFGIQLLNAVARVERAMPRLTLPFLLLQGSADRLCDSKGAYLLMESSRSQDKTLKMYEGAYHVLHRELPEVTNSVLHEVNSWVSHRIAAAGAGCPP
Description: (§1) In Vitro Competitive Activity-Based Protein Profiling.
(§2) Proteomes (mouse brain membrane fraction or cell lysates for mouse assays; human prefrontal cortex or cell membrane fractions for human assays) (50 μL, 1.0 mg/mL total protein concentration) were preincubated with varying concentrations of inhibitors at 37° C. After 30 min, FP-Rh or HT-01 (1.0 μL, 50 μM in DMSO) was added and the mixture was incubated for another 30 min at 37° C. Reactions were quenched with SDS loading buffer (15 μL—4×) and run on SDS-PAGE. Following gel imaging, serine hydrolase activity was determined by measuring fluorescent intensity of gel bands corresponding to MAGL and FAAH using ImageJ 1.43u software.

[2] = molecular target: T2, FAAH (Mus musculus, UniProt O08914); assay: In vitro competitive activity-based protein profiling, mouse FAAH; format: biochemical; conditions: for inhibition at 1 µM: read-out: FAAH % inh. 1 μM (mouse)
T2 construct: mouse brain membrane fraction or cell lysates for mouse assays; from tissue
T2 sequence (O08914 1-579): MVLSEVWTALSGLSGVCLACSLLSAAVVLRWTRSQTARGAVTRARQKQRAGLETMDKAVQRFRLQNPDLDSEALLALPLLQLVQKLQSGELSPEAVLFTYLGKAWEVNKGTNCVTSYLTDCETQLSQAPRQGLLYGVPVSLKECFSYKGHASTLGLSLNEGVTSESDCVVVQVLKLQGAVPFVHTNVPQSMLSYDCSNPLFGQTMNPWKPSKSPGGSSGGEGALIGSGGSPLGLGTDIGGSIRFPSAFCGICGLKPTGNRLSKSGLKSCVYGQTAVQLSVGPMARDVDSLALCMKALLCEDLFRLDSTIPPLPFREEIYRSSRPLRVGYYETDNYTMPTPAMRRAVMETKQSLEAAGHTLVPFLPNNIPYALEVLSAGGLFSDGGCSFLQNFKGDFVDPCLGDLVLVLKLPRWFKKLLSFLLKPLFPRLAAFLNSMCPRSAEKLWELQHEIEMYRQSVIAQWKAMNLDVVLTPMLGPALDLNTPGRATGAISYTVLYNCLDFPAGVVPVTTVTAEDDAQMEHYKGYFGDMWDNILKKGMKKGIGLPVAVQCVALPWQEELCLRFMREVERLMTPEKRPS
Description: as §1, §2

| Compound | inhibition at 1 µM [1] [%] | inhibition at 1 µM [2] [%] | IC50 [1] [nM] | IC50 [2] [nM] |
| --- | --- | --- | --- | --- |
| Cc1ccc(CN2CCC3(CCN(C(=O)n4cc(C(F)(F)F)cn4)C3)C2)cc1 (stereo not drawn) [Example 173, (7-(4-methylbenzyl)-2,7-diazaspiro[4.4]nonan-2-yl)(4-(trifluoromethyl)-1H-pyrazol-1-yl)methanone] | ≥ 75 | ≥ 75 |  |  |
| CC(=O)N1CCN(c2cc(F)ccc2CN2CC3CN(C(=O)n4cc(Cl)cn4)CC3C2)CC1 (stereo not drawn) [Example 107, 1-(4-(2-((5-(4-chloro-1H-pyrazole-1-carbonyl)hexahydropyrrolo[3,4-c]pyrrol-2(1H)-yl)methyl)-5-fluorophenyl)piperazin-1-yl)ethan-1-one] | ≥ 75 | ≥ 75 | ≤ 100 | 100 to 1000 |
| CNC(=O)c1cnn(C(=O)N2CCC3(CCN(Cc4cc(Cl)cc(C(F)(F)F)c4)C3)C2)c1 (stereo not drawn) [Example 44, 1-(7-(3-chloro-5-(trifluoromethyl)benzyl)-2,7-diazaspiro[4.4]nonane-2-carbonyl)-N-methyl-1H-pyrazole-4-carboxamide] | ≥ 75 | ≥ 75 |  |  |
| CN(Cc1ccc(Oc2ccccc2)cc1)[C@@H]1C[C@@H]2CN(C(=O)n3cc(Cl)cn3)C[C@@H]2C1 [Example 158, (4-chloro-1H-pyrazol-1-yl)(cis-5-(methyl(4-phenoxybenzyl)amino)hexahydrocyclopenta[c]pyrrol-2(1H)-yl)methanone] | ≥ 75 | ≥ 75 |  |  |
| CNC(=O)c1cnn(C(=O)N2CC3CN(Cc4ccc(C(F)(F)F)cc4)CC3C2)c1 (stereo not drawn) [Example 19, N-methyl-1-(5-(4-(trifluoromethyl)benzyl)octahydropyrrolo[3,4-c]pyrrole-2-carbonyl)-1H-pyrazole-4-carboxamide] | ≥ 75 | ≥ 75 | 100 to 1000 | ≤ 100 |
| O=C(N1CCC2(CCN(Cc3ccc(CN4CCOCC4)cc3)C2)C1)n1cc(Cl)cn1 (stereo not drawn) [Example 129, (4-chloro-1H-pyrazol-1-yl)(7-(4-(morpholinomethyl)benzyl)-2,7-diazaspiro[4.4]nonan-2-yl)methanone] | 25 to 50 | 50 to 75 |  |  |
| CNC(=O)c1cnn(C(=O)N2CC3CN(Cc4ccc(N5CCOCC5)cc4C(F)(F)F)CC3C2)c1 (stereo not drawn) [Example 27, N-methyl-1-(5-(4-morpholino-2-(trifluoromethyl)benzyl)octahydropyrrolo[3,4-c]pyrrole-2-carbonyl)-1H-pyrazole-4-carboxamide] | ≥ 75 | ≥ 75 |  |  |
| O=C(c1cnn(C(=O)N2CC3CN(Cc4cccc(C(F)(F)F)c4)CC3C2)c1)N1CCN(C2CC2)CC1 (stereo not drawn) [Example 8, (4-cyclopropylpiperazin-1-yl)(1-(5-(3-(trifluoromethyl)benzyl)octahydropyrrolo[3,4-c]pyrrole-2-carbonyl)-1H-pyrazol-4-yl)methanone] | ≥ 75 | ≥ 75 |  |  |
| NC(=O)c1cnn(C(=O)N2CC[C@@]3(CCN(Cc4ccc(N5CCOCC5)cc4C(F)(F)F)C3)C2)c1 [Example 194, (R)-1-(7-(4-morpholino-2-(trifluoromethyl)benzyl)-2,7-diazaspiro[4.4]nonane-2-carbonyl)-1H-pyrazole-4-carboxamide] | ≥ 75 | ≥ 75 |  |  |

Continued, values first:

| inhibition at 1 µM [1] [%] | inhibition at 1 µM [2] [%] | IC50 [1] [nM] | IC50 [2] [nM] | Compound |
| --- | --- | --- | --- | --- |
| ≥ 75 | ≥ 75 |  |  | CC(=O)N(Cc1cccc(Cl)c1)[C@H]1C[C@@H]2CN(C(=O)n3cc(Cl)cn3)C[C@@H]2C1 [Example 74, N-(trans-2-(4-chloro-1H-pyrazole-1-carbonyl)octahydrocyclopenta[c]pyrrol-5-yl)-N-(3-chlorobenzyl)acetamide] |
| ≥ 75 | ≥ 75 | 100 to 1000 | ≤ 100 | CN(Cc1ccccc1Cl)[C@@H]1C[C@@H]2CN(C(=O)n3cc(Cl)cn3)C[C@@H]2C1 [Example 58, (4-chloro-1H-pyrazol-1-yl)(cis-5-((2-chlorobenzyl)(methyl)amino)hexahydrocyclopenta[c]pyrrol-2(1H)-yl)methanone] |
| ≥ 75 | ≥ 75 | 100 to 1000 | 100 to 1000 | COc1ccc(CN2CCC3(CCN(C(=O)n4cc(C(F)(F)F)cn4)C3)C2)cc1 (stereo not drawn) [Example 167, (7-(4-methoxybenzyl)-2,7-diazaspiro[4.4]nonan-2-yl)(4-(trifluoromethyl)-1H-pyrazol-1-yl)methanone] |
| ≥ 75 | ≥ 75 | 100 to 1000 | 100 to 1000 | O=C(N1CCC2(CCN(Cc3ccc(C(F)(F)F)cc3)C2)C1)n1cc(Cl)cn1 (stereo not drawn) [Example 128, (4-chloro-1H-pyrazol-1-yl)(7-(4-(trifluoromethyl)benzyl)-2,7-diazaspiro[4.4]nonan-2-yl)methanone] |
| ≥ 75 | 0 to 25 |  |  | O=C(c1cnn(C(=O)N2CC3CN(Cc4cc(Cl)ccc4Cl)CC3C2)c1)N1CCN(C2CC2)CC1 (stereo not drawn) [Example 6, (4-cyclopropylpiperazin-1-yl)(1-(5-(2,5-dichlorobenzyl)octahydropyrrolo[3,4-c]pyrrole-2-carbonyl)-1H-pyrazol-4-yl)methanone] |
| 25 to 50 | ≥ 75 | 1000 to 10000 | ≤ 100 | CN(Cc1cccc(N2CCOCC2)c1)[C@@H]1C[C@@H]2CN(C(=O)n3cc(Cl)cn3)C[C@@H]2C1 [Example 81, (4-chloro-1H-pyrazol-1-yl)(cis-5-(methyl(3-morpholinobenzyl)amino)hexahydrocyclopenta[c]pyrrol-2(1H)-yl)methanone] |
| ≥ 75 | ≥ 75 | ≤ 100 | ≤ 100 | Cc1ccc(CN2CC3CN(C(=O)n4cc(C(F)(F)F)cn4)CC3C2)cc1 (stereo not drawn) [Example 147, (5-(4-methylbenzyl)hexahydropyrrolo[3,4-c]pyrrol-2(1H)-yl)(4-(trifluoromethyl)-1H-pyrazol-1-yl)methanone] |
| ≥ 75 | ≥ 75 |  |  | O=C(c1cnn(C(=O)N2CC3CN(Cc4cc(Cl)cc(C(F)(F)F)c4)CC3C2)c1)N1CCCC1 (stereo not drawn) [Example 9, (5-(3-chloro-5-(trifluoromethyl)benzyl)hexahydropyrrolo[3,4-c]pyrrol-2(1H)-yl)(4-(pyrrolidine-1-carbonyl)-1H-pyrazol-1-yl)methanone] |
| ≥ 75 | ≥ 75 | 100 to 1000 | ≤ 100 | NC(=O)c1cnn(C(=O)N2CC3CN(Cc4ccc(Cl)cc4)CC3C2)c1 (stereo not drawn) [Example 16, 1-(5-(4-chlorobenzyl)octahydropyrrolo[3,4-c]pyrrole-2-carbonyl)-1H-pyrazole-4-carboxamide] |
| 50 to 75 | ≥ 75 | 100 to 1000 | ≤ 100 | O=C(c1cnn(C(=O)N2CC3CN(Cc4ccc(Oc5ccc(Cl)cc5)cc4)CC3C2)c1)N1CCCC1 (stereo not drawn) [Example 189, (5-(4-(4-chlorophenoxy)benzyl)hexahydropyrrolo[3,4-c]pyrrol-2(1H)-yl)(4-(pyrrolidine-1-carbonyl)-1H-pyrazol-1-yl)methanone] |
| ≥ 75 | ≥ 75 | 100 to 1000 | 100 to 1000 | CN(Cc1cccc(N2CCOCC2)c1)[C@H]1C[C@@H]2CN(C(=O)n3cc(Cl)cn3)C[C@@H]2C1 [Example 82, (4-chloro-1H-pyrazol-1-yl)(trans-5-(methyl(3-morpholinobenzyl)amino)hexahydrocyclopenta[c]pyrrol-2(1H)-yl)methanone] |

— patent US10385057B2, “Pyrazole compounds and methods of making and using same” (Lundbeck La Jolla Research Center, Inc., priority 2015, dated 2019)
